Tests used:
[1] = target: Myeloid Cell Leukemia 1 (Mcl-1) (Homo sapiens, UniProt Q07820); assay: Terbium labeled Mcl-1 HTRF binding assay (displacement of Cy5-labeled BIM BH3 peptide); conditions: 25 pM Tb-Mcl-1, 8 nM Cy5 Bim peptide, [L] = 8 nM, Kd = 10 nM, 60 minutes at room temperature, read-out: Tb-MCL1 Ki
Description: Terbium labeled Myeloid Cell Leukemia 1(Mcl-1) homogeneous time-resolved fluorescence (HTRF) binding assay utilizing the BIM BH3 peptide (H2N-(C/Cy5Mal) WIAQELRRIGDEFN-OH) as the binding partner for Mcl-1.
This assay evaluated inhibition of the BH3 domain : Mcl-1 interaction by measuring the displacement of Cy5-labeled BIM BH3 peptide (H2N-(C/Cy5Mal) WIAQELRRIGDEFN-OH) in the HTRF assay format.
The following assay and stock buffers were prepared for use in the assay: (a) Stock buffer: 10 mM Tris-HCl, pH=7.5 + 150 mM NaCl, filtered, sterilized, and stored at 4° C.; and (b) 1X assay buffer, where the following ingredients were added fresh to stock buffer: 2 mM dithiothreitol (DTT), 0.0025% Tween-20, 0.1 mg/mL bovine serum albumin (BSA). The 1X Tb-Mcl-1 + Cy5 Bim peptide solution was prepared by diluting the protein stock solution using the 1X assay buffer (b) to 25 pM Tb-Mcl-1 and 8 nM Cy5 Bim peptide.
Using the Acoustic ECHO, 100 nL of 100x test compound(s) were dispensed into individual wells of a white 384-well Perkin Elmer Proxiplate, for a final compound concentration of 1x and final DMSO concentration of 1%. Inhibitor control and neutral control (NC, 100 nL of 100% DMSO) were stamped into columns 23 and 24 of assay plate, respectively. Into each well of the plate was then dispensed 10µL of the 1X Tb-Mcl-1 + Cy5 Bim peptide solution. The plate was centrifuged with a cover plate at 1000 rpm for 1 minute, then incubated for 60 minutes at room temperature with plates covered. The TR-FRET signal was read on an BMG PHERAStar FSX MicroPlate Reader at room temperature using the HTRF optic module (HTRF: excitation: 337 nm, light source: laser, emission A: 665 nm, emission B: 620 nm, integration start: 60 µs, integration time: 400 µs).
The BMG PHERAStar FSX MicroPlate Reader was used to measure fluorescence intensity at two emission wavelengths - 665 nm and 620 nm - and report relative fluorescence units (RFU) for both emissions, as well as a ratio of the emissions (665 nm/620 nm)*10,000. The RFU values were normalized to percent inhibition as follows: • % inhibition = (((NC - IC) - compound - IC)) / (NC - IC)) *100 where IC (inhibitor control, low signal) = mean signal of 1X Tb-MCl-1 + Cy5 Bim peptide+ inhibitor control or 100% inhibition of Mcl-1; NC (neutral control, high signal) = mean signal 1X Tb-MCl-1 + Cy5 Bim peptide with DMSO only or 0% inhibition An 11-point dose response curve was generated to determine IC50 values (using GenData) based on the following equation:
where Y = % inhibition in the presence of X inhibitor concentration; Top = 100% inhibition derived from the IC (mean signal of Mcl-1 + inhibitor control); Bottom = 0% inhibition derived from the NC (mean signal of Mcl-1 + DMSO); Hillslope = Hill coefficient; and IC50 = concentration of compound with 50% inhibition in relation to top/neutral control (NC).
In this assay [L] = 8 nM and Kd = 10 nM

[2] = system: MOLP-8 human multiple myeloma cell line; assay: Caspase-Glo 3/7 apoptosis induction assay in MOLP-8 cells; format: cell-based; conditions: MOLP8 cells, 2 hours at 37° C.; 30 µM highest conc.; averaged over all runs on all batches
From the text: MCL-1 is a regulator of apoptosis and is highly over-expressed in tumor cells that escape cell death. The assay evaluates the cellular potency of small-molecule compounds targeting regulators of the apoptosis pathway, primarily MCL-1, Bfl-1, Bcl-2, and other proteins of the Bcl-2 family. Protein-protein inhibitors disrupting the interaction of anti-apoptotic regulators with BH3-domain proteins initiate apoptosis.
The Caspase-Glo® 3/7 Assay is a luminescent assay that measures caspase-3 and -7 activities in purified enzyme preparations or cultures of adherent or suspension cells. The assay provides a proluminescent caspase-3/7 substrate, which contains the tetrapeptide sequence DEVD. This substrate is cleaved to release aminoluciferin, a substrate of luciferase used in the production of light. Addition of the single Caspase-Glo® 3/7 Reagent in an “add-mix-measure” format results in cell lysis, followed by caspase cleavage of the substrate and generation of a “glow-type” luminescent signal.
This assay uses the MOLP-8 human multiple myeloma cell line, which is sensitive to MCL-1 inhibition.
Cell cultures were maintained between 0.2 and 2.0 ×10^6 cells/mL. The cells were harvested by collection in 50 mL conical tubes. The cells were then pelleted at 500 g for 5 mins before removing supernatant and resuspension in fresh pre-warmed culture medium. The cells were counted and diluted as needed.
The assay reagent was prepared by transferring the buffer solution to the substrate vial and mixing. The solution may be stored for up to 1 week at 4° C. with negligible loss of signal.
Compounds were delivered in assay-ready plates (Proxiplate) and stored at -20° C. Assays always include 1 reference compound plate containing reference compounds. The plates were spotted with 40 nL of compounds (0.5% DMSO final in cells; serial dilution; 30 µM highest conc. ⅓ dilution, 10 doses, duplicates). The compounds were used at room temperature and 4 µL of pre-warmed media was added to all wells except column 2 and 23. The negative control was prepared by adding 1% DMSO in media. The positive control was prepared by adding the appropriate positive control compound in final concentration of 60 µM in media. The plate was prepared by adding 4 µL negative control to column 23, 4 µL positive control to column 2 and 4 µL cell suspension to all wells in the plate. The plate with cells was then incubated at 37° C. for 2 hours. The assay signal reagent is the Caspase-Glo solution described above, and 8 µL was added to all wells. The plates were then sealed and measured after 30 minutes.
The activity of a test compound was calculated as percent change in apoptosis induction as follows:
• %Effect (AC50) = 100 - ((sample-LC) / (HC-LC)) *100 • %Control = (sample /HC)* 100 • %Control min = ((sample-LC) / (HC-LC)) *100

Sequence of Myeloid Cell Leukemia 1 (Mcl-1) (Q07820 whole entry): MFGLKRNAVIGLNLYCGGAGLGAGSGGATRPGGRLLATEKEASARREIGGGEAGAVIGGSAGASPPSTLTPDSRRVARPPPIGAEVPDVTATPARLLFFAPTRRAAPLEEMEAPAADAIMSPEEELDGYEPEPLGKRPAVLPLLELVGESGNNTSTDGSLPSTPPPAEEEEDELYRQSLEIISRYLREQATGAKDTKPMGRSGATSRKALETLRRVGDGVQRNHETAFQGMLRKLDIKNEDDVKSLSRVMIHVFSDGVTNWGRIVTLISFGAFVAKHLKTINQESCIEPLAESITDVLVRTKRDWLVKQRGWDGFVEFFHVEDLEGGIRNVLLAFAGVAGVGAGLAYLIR

Compound	Ki [1]	AC50 [2]
Cc1nn2c(c1C)-c1c(Cl)ccc3c1c(C)c(C(=O)O)n3CCCOc1cc(cc3cc(F)ccc13)CCc1cc(nn1C)CCC2 (single isomer, unassigned) [Compound 1]	0.04 nM	26 nM
Cc1nn2c(c1C)-c1c(Cl)ccc3c1c(C)c(C(=O)O)n3CCCOc1cc(cc3cc(F)ccc13)CCc1cc(nn1C)CCC2 (single isomer, unassigned) [Compound 2]	3.28 nM	1930 nM
Cc1nn2c(c1C)-c1c(Cl)ccc3c1c(C)c(C(=O)O)n3CCCOc1cc(cc3ccccc13)SCc1cc(nn1C)CCC2 (single isomer, unassigned) [Compound 3]	0.1 nM	131 nM
Cc1nn2c(c1C)-c1c(Cl)ccc3c1c(C)c(C(=O)O)n3CCCOc1cc(cc3ccccc13)SCc1cc(nn1C)CCC2 (single isomer, unassigned) [Compound 4]	1.57 nM	4010 nM
Cc1nn2c(c1C)-c1c(Cl)ccc3c1c(C)c(C(=O)O)n3CCCOc1cc(cc3ccccc13)SCc1cn(nn1)CCC2 (single isomer, unassigned) [Compound 5]	5.21 nM	8180 nM
Cc1nn2c(c1C)-c1c(Cl)ccc3c1c(C)c(C(=O)O)n3CCCOc1cc(cc3ccccc13)SCc1cn(nn1)CCC2 (single isomer, unassigned) [Compound 6]	445 nM	> 30000 nM
Cc1nn2c(c1C)-c1c(Cl)ccc3c1c(C)c(C(=O)O)n3CCCOc1cc(cc3ccccc13)SCc1cnn(c1)CCC2 (single isomer, unassigned) [Compound 7]	0.95 nM	3180 nM
Cc1nn2c(c1C)-c1c(Cl)ccc3c1c(C)c(C(=O)O)n3CCCOc1cc(cc3ccccc13)SCc1cnn(c1)CCC2 (single isomer, unassigned) [Compound 8]	422 nM	27500 nM

— patent US20230234965A1, “N-LINKED MACROCYCLIC 4-(PYRAZOL-5-YL)-INDOLE DERIVATIVES AS INHIBITORS OF MCL-1” (Janssen Pharmaceutica NV, priority 2020, published 2023)
